Entries after “also recorded” stand apart in the source; their conditions may differ. Counter-ions that a name gives are not always drawn. Values belong to the compound of their own block, whether it stands above or below them.
Tests used:
[1] = Polymorphic stability on exposure to air / air-drying; assay type: physicochemical
[2] = cited from earlier work
[3] = Stability of form II: suspension stirred in solvent, solid analysed by XRPD; assay type: physicochemical
Experimental: 2.0 g of anagrelide hydrochloride monohydrate form II was suspended in 20 ml solvent. […] At certain time points, a small amount of the suspension was filtered over a P3-glass filter (reduced pressure). The solids were air-dried overnight at RT.
(§1) In the above examples, the XRPD patterns were recorded on a Bruker-AXS D8 vario (Θ/2Θ geometry, reflection mode, Vantec PSD detector) operating at the following settings: […]

[4] = Instant solubility in buffers, Milli-Q water and 0.1 M HCl (HPLC-UV); assay type: physicochemical; conditions: USP acetate buffer pH 4.5, USP phosphate buffer pH 6.8, Milli-Q water and 0.1 M HCl; room temperature; 0-60 minutes; Figure 5; hydrochloride monohydrate
Experimental: The instant solubility of anagrelide hydrochloride monohydrate form II, form I and free base was determined in USP acetate buffer pH 4.5, USP phosphate buffer pH 6.8, Milli-Q water (herein below "MQ") and 0.1 M HCl. About 30 mg of the drug substance was transferred into a clear 50 ml sample jar and a stirring bar was added. Subsequently 30 ml of test medium was added; the vial was closed and placed on a magnetic stirrer. Under constant stirring at room temperature samples of 2 ml were taken at t=0, 10, 20, 30, 40, 50, and 60 minutes. The samples were immediately filtered through a 0.45 µm syringe disk filter (first ml was discarded) and analyzed at once with the HPLC-UV method described in Table 1. The solubility was calculated in mg/ml anagrelide free base against an external standard (AGL.hcl.mhy.120310) dissolved in acetonitrile/milli-Q (ACN/MQ) (50:50). Table 1 HPLC-UV parameters used for instant solubility testing

[5] = Conversion study in ethanol at specified stirring temperature, XRPD; assay type: physicochemical; conditions: for Crystal form (XRPD): ethanol, stirring time 2 hours only
Experimental: The suspension was filtered over a P3-glass filter (reduced pressure), washed with solvent and dried.
as §1

[6] = Stability of form I: suspension stirred in solvent, solid analysed by XRPD; assay type: physicochemical; conditions: RT
Experimental: […] The suspension was filtered over a P3-glass filter (reduced pressure), washed with solvent and dried.
as §1

Crystal form (XRPD) ([5]; stirring temperature 72.5 °C): I + II
Crystal form (XRPD) ([5]; stirring temperature 75 °C): mostly I, some II left
SMILES: Cl.O.O=C1CN2Cc3c(ccc(Cl)c3Cl)N=C2N1 [anagrelide hydrochloride monohydrate]

XRPD ([6]; 2-propanol, 16 hours): Form I + II
XRPD ([6]; Acetone, 2 days): Form II
XRPD ([6]; Demi-water, 30 min): Anagrelide base
XRPD ([6]; Demi-water, 180 min): Anagrelide base
XRPD ([6]; Ethanol, 30 min): Form II
XRPD ([6]; Ethanol, 16 hours): Form II
XRPD ([6]; Ethyl acetate, 2 days): Form II
SMILES: O=C1CN2Cc3c(ccc(Cl)c3Cl)N=C2N1 [form I, anagrelide hydrochloride monohydrate]

Further lines, the compound ahead of its results:

SMILES: O=C1CN2Cc3c(ccc(Cl)c3Cl)N=C2N1 [form III, anagrelide hydrochloride monohydrate]
stability when exposed to air ([1]; exposed to air): converts into form I or a mixture of forms I and II

SMILES: O=C1CN2Cc3c(ccc(Cl)c3Cl)N=C2N1 [Anagrelide hydrochloride monohydrate]
solubility in water [2]: very slightly soluble
converts into anagrelide free base ([3]; in water): 30 to 180 min

SMILES: O=C1CN2Cc3c(ccc(Cl)c3Cl)N=C2N1 [form II, anagrelide hydrochloride monohydrate]
polymorphic change on air-drying ([1]; air-drying at ambient temperature): does not cause any polymorphic change
instant solubility compared to form I [4]: more soluble; also recorded: higher
transition point ([5]; form II / form I, suspension in ethanol): around 72.5 °C
stable at temperatures ([5]; suspension in ethanol): below 70 °C
XRPD ([3]; 2-propanol, 30 min, RT): Form II
XRPD ([3]; 2-propanol, 60 min, RT): Form II
XRPD ([3]; 2-propanol, 120 min, RT): Form II
XRPD ([3]; 2-propanol, overnight, RT): Form II
XRPD ([3]; Demi-water, 30 min, RT): Form II + anagrelide base
XRPD ([3]; Demi-water, 60 min, RT): Form II + anagrelide base
XRPD ([3]; Demi-water, 120 min, RT): Form II + anagrelide base
XRPD ([3]; Demi-water, 180 min, RT): Anagrelide base
XRPD ([3]; Ethanol, 30 min, RT): Form II
XRPD ([3]; Ethanol, 60 min, RT): Form II
XRPD ([3]; Ethanol, 120 min, RT): Form II
XRPD ([3]; Ethanol, 3 hours, reflux): Form I
XRPD ([3]; Ethanol, overnight, RT): Form II
polymorphic stability ([3]; ambient temperature, ethanol, 2-propanol, acetone, ethyl acetate, compared with form I): polymorphically stable at ambient temperature and even more stable than form I
stability against aqueous hydrolysis ([3]; stirred in demi-water for up to 180 minutes, compared with form I): more stable against aqueous hydrolysis than form I

From EP2945948B1, “CRYSTALLINE FORM II OF ANAGRELIDE HYDROCHLORIDE MONOHYDRATE” (Synthon BV, priority 2013, dated 2014)
